According to patent US11898167B2, “Reversible stencils for fabricating micro-tissues” (The Regents of the University of California, priority 2014, dated 2024):
Entries after “also recorded” stand apart in the source; their conditions may differ.

Tests used:
Assay type in all cases: cell-based, human
[1] = system: micro-muscle heart tissues; assay: Calcium dose response of twitch force of micro-muscles; conditions: increasing extracellular calcium concentrations (2 mM, 6 mM shown)
Source text: Representative micro-muscle heart tissues were generated by seeding small numbers of cardiomyocytes into stencil microwells as described herein. Separate micro-muscles were then contacted with different extracellular calcium concentrations.

[2] = system: iPS-CM micro-tissues harboring the GCaMP6f calcium indicator; assay: Calcium flux (GCaMP6f reporter) in iPS-CM micro-tissues; parameters: dose or concentration left out as unconfirmed; conditions: 1 week and 2 week micro-tissues, paced at 1 Hz; isoproterenol
Procedure: Induced pluripotent stem cells genetically modified to express the GCaMP6f calcium indicator gene product, and then differentiated into cardiomyocytes (iPS-CM). Micro-tissues were made with iPS-CM harboring the GCaMP6f calcium indicator, to allow continuous recording of calcium flux as illustrated in FIG. 8.
FIG. 8D-8E illustrate the functional maturation of iPS-CM-derived micro-tissues (μHT, micro-heart tissues). After 1 or 2 weeks of incubation in the stencil microwells, the micro-tissues were paced at 1 Hz for analysis of inotropy.

[3] = system: heterozygous MYPBC3+/− iPS micro-tissues; assay: Beat-rate response of heterozygous MYBPC3 iPS-CM micro-tissues; conditions: first daily 10 uM dose
Procedure: (§1) The beating rate, maximum contraction velocity, and spatial coordination of beating within micro-tissues was assessed visually, and quantified using image processing software was used, such as the custom block-matching optical flow software, described in a publication that is currently under review (Huebsch 2014). Micro-tissue response to drugs, including verapamil and isoproterenol, was tested using an automated inverted microscope (Zeiss).
FIGS. 4G and 4H further illustrate that micro-tissues generated from mutant cells are excellent models of human diseases. Micro-tissues were generated within the dogbone-shaped microwells described herein from three different cell types: wild type MYPBC3^+/+ iPS, heterozygous MYPBC3^+/− iPS, and null MYPBC3^−/− iPS. […] However, upon repeated exposure to isoproterenol, the differences heterozygous and null MYPBC3 tissue responses became less significant (FIG. 4H).

[4] = system: iPS-CM two-dimensional monolayers; assay: Beating of iPS-CM in unpatterned two-dimensional monolayers/cell clusters, drug response
MYBPC3−/− micro-tissues = assay: Beat-rate response of MYBPC3 null iPS-CM micro-tissues
Procedure: as §1
To model hypertrophic cardiomyopathy, MYPBC3 was knocked out of wild type iPS.

[5] = system: wild type iPS-CM micro-tissues; assay: Beating (beat rate, contraction velocity) of wild type iPS-CM three-dimensional micro-tissues in stencil microwells, drug response
Procedure: as §1
Beginning five days after seeding cells into micro-tissue molds, the beating parameters of spontaneously beating (non-paced) iPS-CM micro-tissues were analyzed. […] Despite this difference, micro-tissues maintained in RPMI media with B27 supplement all beat at nearly the same rate (FIG. 4B). Micro-tissues incubated in StemPro 34 media beat with a slightly more variable rate from one tissue to the next, but at a basal rate closer to the physiological levels of 1 Hz for human cells (data not shown).

## [Ca+2] [calcium]
[1]
  twitch force: dramatically increases

## CC(C)NCC(O)c1ccc(O)c(O)c1 (stereo not shown) [isoproterenol]
[2]
  calcium flux response: responded to isoproterenol
[3]
  beating frequency in response to isoproterenol: less than the wild type MYPBC3 tissues but greater than the null MYPBC3 tissues
[4]; 2D cultured iPS-CM monolayers, non-paced, 10 μm isoproterenol
  beat-rate response: erratic/unpredictable responses; also recorded: varies significantly from one test to the next; also recorded: large variance amongst samples
[4]; 2D monolayers, 10 μm isoproterenol
  intensity of beating (inotropic response): did not affect the intensity of beating
[4]; 2D-cultured cells and cell clusters, high doses
  cessation of beating at high doses: stopped beating
MYBPC3−/− micro-tissues; null MYPBC3−/− micro-tissues, first daily 10 uM dose
  beating frequency in response to isoproterenol: returned to a lower beating frequency significantly faster
MYBPC3−/− micro-tissues; short-term (30 minutes) and chronic (5 days of daily dosing) exposure, 10 μm isoproterenol, compared with wild type
  beat-rate (chronotropic response): blunted decrease in beat-rate
[5]; 3D micro-tissues, wild type iPS-CM, non-paced, 10 μm isoproterenol
  beat-rate response: highly reproducible; also recorded: robust increase in beat-rate response
[5]; 3D micro-tissues, 10 μm isoproterenol
  intensity of beating, measured via the maximum contraction velocity (inotropic response): exhibit an inotropic response
[5]; 3D-cultured micro-tissues within stencil wells, high doses
  cessation of beating at high doses: no such effects were observed
[5]; wild type MYPBC3+/+ micro-tissues, first daily 10 uM dose
  beating frequency in response to isoproterenol: greatest increase in beating frequency

## COc1ccc(CCN(C)CCCC(C#N)(c2ccc(OC)c(OC)c2)C(C)C)cc1OC (stereo not shown) [verapamil]
[5]; stencil micro-tissues compared to the same cells in non-patterned 2D monolayers, 30 minutes per dose
  IC50 value (beating): higher IC50 value
